Several values for one entry are separate records, joined by “and”; a condition that tells them apart may be missing. Equal entries are not always repeated.

For the data set, the system named is radiation-induced fibrosarcoma (RIF) tumors. As to the kind of experiment: Preclinical Photofrin-PDT of RIF tumors: [ROS]rx by ROSED from Oxylite-measured or DCS blood-flow-derived oxygen. Format: in vivo, mice. Conditions: per mouse; for Initial Photofrin concentration, [PS]: in tumor, 5 mg/kg i.v. 24 h before light, 5 mg/kg; for Calculated [ROS]rx, Measured [^3O2] / Calculated [ROS]rx, DCS blood flow: 75 mW/cm^2, 1800 or 3333 s; for Calculated [ROS]rx, Measured [^3O2]: Oxylite-measured oxygen; for Calculated [ROS]rx, DCS blood flow: blood-flow-derived oxygen. As for the experimental part: Tumor model and PDT treatment conditions: A preclinical study was conducted using a murine model to investigate the relationship between the dynamics of tumor oxygen and blood flow during PDT. Female C3H mice (Charles River Laboratories, Kingston, NY) between 6 to 8 weeks of age were used in this study. Radiation-induced fibrosarcoma (RIF) tumors were propagated on the shoulders of mice by intradermal injection of 3×10^5 cells. The mice were fed with chlorophyll-free (alfalfa-free) rodent diet (Harlan Laboratories Inc., Indianapolis, Indiana, US) for two weeks prior to treatment to eliminate the fluorescence signal from chlorophyll-breakdown products, which overlap with the emission spectrum of Photofrin fluorescence. PDT was performed when tumors reached ˜4-5 mm in diameter. The treatment area was depilated with Nair (Church & Dwight Co., Inc., Ewing, New Jersey, US) and 5 mg/kg Photofrin was injected via tail vein 24 hours prior to measurements and light delivery. Tissue optical properties and Photofrin fluorescence spectra were obtained using a custom-made multi-fiber contact probe, as described elsewhere (18, 19), before and after PDT. Tissue oxygenation and blood flow changes were monitored continuously during the delivery of PDT using oximeter and DCS as described below. At a 24-h drug-light interval, superficial irradiation of the tumor was performed with a 630-nm laser (Biolitec AG., A-1030, Vienna). A microlens fiber was coupled to the laser to irradiate the tumor uniformly. Animals used in this study were under the care of the University of Pennsylvania Laboratory Animal Resources and the studies were approved by the University of Pennsylvania Institutional Animal Care and Use Committee.
Measurement of tumor tissue oxygenation during preclinical PDT: Tumor oxygen was monitored throughout the PDT treatment in mice using an optical oxygen partial pressure (pO2) monitor (OxyLite Pro, Oxford Optronix, Oxford, UK), with a bare-fiber-type probe (NX-BF/O/E, Oxford Optronix, Oxford, UK). The tip of the probe was inserted into the tumor at approximately 1-2 mm depth from the treatment surface to measure the changes in tissue oxygen partial pressure within the tumor mass during PDT. ^3O2 concentration was then approximated by multiplying the measured pO2 with ^3O2 solubility in tissue, which is 1.295 μM/mmHg (20, 21).
Measurement of blood flow during preclinical PDT: Tumor blood flow was measured using DCS, an optical technique that measures the rapid speckle intensity fluctuations induced by blood flow. DCS, within a noncontact probe setup, was used to monitor blood flow changes in mice during PDT. A detailed description of the DCS instrument can be found in (22, 23). Briefly, a continuous wave 785-nm laser with long coherence length (CrystaLaser Inc., Reno, NV) delivered light through a source fiber, and the diffuse reflected light was collected using two single mode fibers located 0.3 cm laterally from the source fiber. These fibers were mounted on the imaging plane of a camera with sensor removed. A camera lens was used to focus the laser and to collect diffuse reflected light from the tumor at a fixed distance of 15 cm from the camera lens. This setup permits noncontact blood flow measurements during PDT without obstructing the treatment light. Two single photon counting avalanche photodiodes were used to detect the diffuse light in parallel. Notch filters at 630 nm and a 785 nm bandpass filter were used to prevent the ambient room light and the strong 630-nm treatment laser from saturating the detectors. Tissue blood flow measurements started 5 minutes before the beginning of PDT treatment and lasted until completion of PDT.
Calculation of [ROS]rx using ROSED: The PDT process is described by a set of kinetic equations which can be simplified to compute the production of [ROS]rx (4, 8, 9, 13). […]

On to Photofrin, for which, under “treatment time 1800 s”, the “Initial Photofrin concentration, [PS]” value was 6.9 µM and 6.8 µM and 5.2 µM and 5.7 µM; the “Calculated [ROS]rx, Measured [^3O2]” value was 1.39 mM and 1.24 mM and 1.07 mM and 1.09 mM; the “Calculated [ROS]rx, DCS blood flow” value is 1.35 mM and 1.18 mM and 1.12 mM and 0.95 mM. For the setting “treatment time 3333 s”, the “Initial Photofrin concentration, [PS]” value is 6.5 µM and 4.2 µM and 4.5 µM; the “Calculated [ROS]rx, Measured [^3O2]” value was 2.33 mM and 1.73 mM and 1.89 mM; the “Calculated [ROS]rx, DCS blood flow” value is 2.21 mM and 1.92 mM and 1.81 mM.
